Laboratory results as given in patent US6596712B2, “Treatment of carcinomas using squalamine in combination with other anti-cancer agents or modalities” (Genaera Corporation, priority 1996, dated 2003).

Key:
[1] = system: human MX-1 breast cancer line; type: in vivo; conditions: single 200 mg/kg dose on day 14
Description: These documents each are entirely incorporated herein by reference. Squalamine was examined as adjunctive therapy following a single 200 mg/kg dose of cyclophosphamide. The cyclophosphamide was injected on day 14 following implantation of the tumor, at a time when the tumors measured 65-125 μl. […] The animals were then randomized to three treatment arms (each n=27): vehicle dosing only (Intralipid); squalamine given 10 mg/kg/day in Intralipid; and squalamine given 20 mg/kg/day in Intralipid for five days a week. Animals whose tumors exceeded 2 grams at any time during the experiment were euthanized. The experiment was continued for 90 days after initiating squalamine treatment to ensure that only mice experiencing long-term cures were still alive.

[2] = system: murine Lewis lung adenocarcinoma; experiment: Lung metastases of subcutaneous Lewis lung carcinoma; type: in vivo, C57BL/6 mice; conditions: day 20; squalamine 20 mg/kg/day s.c.; cyclophosphamide 125 mg/kg i.p. days 7, 9, 11; cisplatin 10 mg/kg i.p. day 7
Description: The murine Lewis lung adenocarcinoma was implanted subcutaneously in the hind-leg of male C57BL/6 mice and allowed to grow for one week. Groups of mice were then left untreated or treated with either squalamine (20 mg/kg/day, s.c.), cyclophosphamide (125 mg/kg, i.p. on days 7, 9 and 11), cisplatin (10 mg/kg, i.p. on day 7), the combination of squalamine and cyclophosphamide, or the combination of squalamine and cisplatin. On day 20, the animals were sacrificed, and the mean number of lung metastases were determined for each group.

NHE1, NHE2, NHE3 = conditions: FIG. 4; cited from earlier work
LNCaP cells = experiment: LNCaP cell growth in vitro ([3H]-thymidine incorporation); type: cell-based, human; conditions: media containing serum
Description: The anti-proliferative effect of squalamine was evaluated in tissue culture by both crystal violet staining and [^3H]-thymidine incorporation, on the LNCaP/C4-2 human prostate cancer progression model. Developed by applicants' laboratory, this lineage-derived cell line recapitulates the progression of human neoplastic prostate disease from an androgen-dependent and minimally metastatic condition (LNCaP cells) to an androgen-independent (defined as being able to proliferate in castrate hosts) and highly aggressive state (C4-2 subline).
In vitro experiments were also conducted with the LNCAP cell line in which cell proliferation as judged by [3H]-thymidine uptake was determined. LNCaP cells were maintained as previously described (cf. J. T. Hsieh et al., Cancer Research 53, 2852-2857 (1993)). Cells were exposed to 20 ng/mL vascular endothelial growth factor (VEGF), 20 μg/mL squalamine or a combination of VEGF and squalamine. […] As a consequence, the mechanism underlying the effectiveness of squalamine treatment of the LNCaP tumor in vivo may under certain conditions also involve direct inhibition of tumor cell growth and/or induction of tumor cell death.

[3] = system: 9L gliosarcoma tumors (9L glioma); experiment: 9L glioma flank study; type: in vivo, Fisher 344 rats; conditions: Day 25 or 26 after implantation; treatment from Day 5 per Table 4
Description: Four groups of rats (twenty total Fisher 344 rats, 200 g) were given s.q. transplants of 1 mm3 9L gliosarcoma tumors (9L glioma) on Day 0. The tumors were implanted in the rat flanks to avoid complications relating to adequate brain levels of squalamine. Randomization and treatment began on Day 5 according to the following scheme:
On Day 25 or 26 after tumor implantation, the tumor size was measured directly. The tumor size (i.e., its volume “V”) was estimated based on volumetric calculations determined from the measured length (“L”), width (“W”), and height (“H”) of the tumor (Vtumor spheroid˜0.5 ×L×W×H). The tumor volumes shown in Table 5 represent the mean tumor volumes for each treatment group for those animals that survived to the end of the experiment.

H460 = H460 lung tumor xenograft with carboplatin; type: in vivo, nude BALBc mice
Description: (§1) About 5×10^6 cells from each of two human lung tumor lines, H460 (a rapidly proliferating large cell carcinoma cell line, ATCC HTB-177) and Calu-6 (an anaplastic carcinoma, ATCC HTB-56), were inoculated subcutaneously in the right foreleg of nude BALBc mice. Once tumors were visible (3-5 days) with a mean volume of approximately 50-80 mm^3, mice were treated intraperitoneally with 60 mg/kg carboplatin (single dose) or 20 mg/kg/squalamine (once daily for 5 days) or a combination of carboplatin and squalamine. There were 8 mice per group. Tumor growth inhibition was scored by quantifying the size of tumors once control tumors reached a size of 1.0 gram and determining the ratio of mean treated tumor size to mean control tumor size (T/C). Tumor growth inhibition was then scored as 100% x [1-(T/C)]. A separate antitumor activity variable, tumor growth delay, was scored for the tumors by determining the length of time it required for the mean tumor size in a treatment group to reach a size of 500 mm^3 (B. A. Teicher et al., Anticancer Research 18, 2567-2574 (1998)). The tumor growth inhibition seen with carboplatin plus squalamine was greater than that seen with carboplatin or squalamine alone. The relative inactivity of squalamine as a single agent by this assay endpoint supports the idea that squalamine is synergistic with carboplatin in the inhibition of these two human lung tumor xenografts. Similarly, it was determined that squalamine enhanced the tumor growth delay caused by carboplatin by an enhancement factor of >2.3 (Table 7).

Calu-6 = Calu-6 lung tumor xenograft with carboplatin; type: in vivo, nude BALBc mice
Description: as §1

parental 2008 cell line = experiment: Human ovarian tumor 2008 xenograft with cisplatin; type: in vivo, female Swiss nude mice; conditions: cisplatin single dose 4 mg/kg, squalamine 2 mg/kg, days 1-10
Description: Human ovarian tumor cells were injected subcutaneously (5×10^7 cells per animal) in the mid-back region of female Swiss nude mice. The human ovarian tumors were either the parental 2008 cell line (cf. R. J. Pietras et al., Oncogene 9, 1829-1838 (1994)) or a transfected variant overexpressing the Her-2/neu receptor. The overexpression of the Her-2/neu receptor is considered to make the resulting xenograft tumors more angiogenic and less responsive to chemotherapy. After one week, animals were randomized to groups receiving no treatment (controls), a single dose of cisplatin (4 mg/kg), daily treatment with squalamine (2 mg/kg, days 1-10) or cisplatin plus squalamine. The growth of tumors was then scored on day 28 following initiation of chemotherapy. The results were very similar with the parental 2008 tumor and the transfected variant overexpressing the Her-2/neu receptor. […] In this xenograft model, the [day 28 mean treated tumor weight increase divided by the day 28 mean control tumor weight increase (T/C)] x 100% was subtracted from 100% to give the tumor growth inhibition (TGI) value for each group.

[4] = carboplatin 60 mg/kg i.p. single dose, squalamine 20 mg/kg once daily for 5 days
[5] = time for mean tumor size to reach 500 mm^3

Compound: O=P1(N(CCCl)CCCl)NCCCO1 (centres unmarked) [cyclophosphamide, N,N-Bis-(2-chloroethyl)-N′-(3-hydroxypropyl)phosphordiamidic acid cyclic ester monohydrate, reference compound]
- tumor regression [1]: partial regression in all animals and complete regression in a small fraction of the animals
- mean number of lung metastases [2]: reduced the number of metastases

Compound: N=C(N)NC(=O)c1nc(Cl)c(N)nc1N [amiloride]
- NHE isoform selectivity (NHE1, NHE2, NHE3): specifically act against NHE1 over NHE2 or NHE3

Compound: VEGF
- Percent of Control [3H]-Thymidine Uptake (LNCaP cells; 20 ng/mL VEGF and/or 20 μg/mL squalamine, 24 hours): 84%
- effect on cell growth alone (LNCaP cells; 20 ng/mL VEGF or 20 μg/mL squalamine): minimal effects on cell growth

Compound: O=NN(CCCl)C(=O)NCCCl [BCNU, 1,3-Bis(2-chloroethyl)-1-nitrosourea, reference compound]
- % Reduction (based on control volume) [3]: 86.1%
- Mean Tumor volume [3]: 2,547 mm^3

Compound: N.N.O=C([O-])C1(C(=O)[O-])CCC1.[Pt+2] [Carboplatin, carboplatin]
- Tumor Growth Inhibition (T/C) (H460; [4]): 50%
- Tumor Growth Delay (H460; [5]): 2.9
- Tumor Growth Inhibition (T/C) (Calu-6; [4]): 23%
- Tumor Growth Delay (Calu-6; [5]): 2.5

Compound: N.N.[Cl][Pt][Cl] [Cisplatin, cis-Diamminedichloroplatinum, reference compound]
- mean number of lung metastases [2]: reduced the number of metastases
- Day 28 Mean Tumor Size (parental 2008 cell line): 5108 mm^3
- Tumor Growth Inhibition (TGI) Index (parental 2008 cell line; day 28): 18%
